Literature values as cited in paper PMC5447021, “TNF Lectin-Like Domain Restores Epithelial Sodium Channel Function in Frameshift Mutants Associated with Pseudohypoaldosteronism Type 1B” (Frontiers in Immunology, 2017).

Columns and labels:
γ-ENaC = details: HEK-293, 5 and 10 min; cited from earlier work
α-hENaC = target: T1, α-hENaC (Homo sapiens, UniProt P37088); parameters: method as in PMID 24077967; details: α-hENaC alone, control current 55.3 ± 5.5 pA, mean ± S.E.; cited from earlier work
T1 construct: expressed in transfected cells; host or cells: HEK-293
T1 sequence (P37088 1-669): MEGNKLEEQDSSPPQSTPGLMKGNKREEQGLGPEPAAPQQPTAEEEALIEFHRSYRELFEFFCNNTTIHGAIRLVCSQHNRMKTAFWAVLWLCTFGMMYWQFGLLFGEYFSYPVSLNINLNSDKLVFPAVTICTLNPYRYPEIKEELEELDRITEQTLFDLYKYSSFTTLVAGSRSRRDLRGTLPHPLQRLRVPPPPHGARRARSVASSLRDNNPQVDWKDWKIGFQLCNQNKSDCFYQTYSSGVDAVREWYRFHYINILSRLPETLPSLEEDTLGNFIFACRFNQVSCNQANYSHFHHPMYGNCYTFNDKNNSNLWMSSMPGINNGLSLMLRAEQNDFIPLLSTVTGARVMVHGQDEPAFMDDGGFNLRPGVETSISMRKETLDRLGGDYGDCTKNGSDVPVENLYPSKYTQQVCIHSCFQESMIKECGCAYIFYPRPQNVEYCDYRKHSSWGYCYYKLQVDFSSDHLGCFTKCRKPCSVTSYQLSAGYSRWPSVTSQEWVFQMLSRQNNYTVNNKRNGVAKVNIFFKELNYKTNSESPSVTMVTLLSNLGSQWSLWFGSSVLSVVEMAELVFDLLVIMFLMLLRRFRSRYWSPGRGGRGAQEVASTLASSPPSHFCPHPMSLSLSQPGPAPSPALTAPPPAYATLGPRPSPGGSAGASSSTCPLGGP

αβγ-hENaC = target: T2, αβγ-hENaC (Homo sapiens, UniProt P37088+P51168+P51170); parameters: method as in 2 sources, ref 16 = [16]; PMID 24077967; doi:10.1124/mol.113.089409; 16 Shabbir W Scherbaum-Hazemi P Tzotzos S Fischer B Fischer H Pietschmann H Mechanism of action of novel lung edema therapeutic AP301 by activation of the epithelial sodium channel . Mol Pharmacol ( 2 ||| ref 24 = [24]; PMID 20979368; doi:10.1021/jm100767p; 24 Hazemi P Tzotzos SJ Fischer B Andavan GS Fischer H Pietschmann H Essential structural features of TNF-α lectin-like domain derived peptides for activation of amiloride-sensitive sodium current in A; details: αβγ-hENaC in HEK-293, whole-cell, -100 mV, amiloride-sensitive control current 75.8 ± 4.5 pA, mean ± S.E.; cited from earlier work
T2 construct: expressed in transfected cells; host or cells: HEK-293
T2 sequence (P37088 1-669): T1 sequence (P37088 1-669)
T2 sequence (P51168 1-640 partner): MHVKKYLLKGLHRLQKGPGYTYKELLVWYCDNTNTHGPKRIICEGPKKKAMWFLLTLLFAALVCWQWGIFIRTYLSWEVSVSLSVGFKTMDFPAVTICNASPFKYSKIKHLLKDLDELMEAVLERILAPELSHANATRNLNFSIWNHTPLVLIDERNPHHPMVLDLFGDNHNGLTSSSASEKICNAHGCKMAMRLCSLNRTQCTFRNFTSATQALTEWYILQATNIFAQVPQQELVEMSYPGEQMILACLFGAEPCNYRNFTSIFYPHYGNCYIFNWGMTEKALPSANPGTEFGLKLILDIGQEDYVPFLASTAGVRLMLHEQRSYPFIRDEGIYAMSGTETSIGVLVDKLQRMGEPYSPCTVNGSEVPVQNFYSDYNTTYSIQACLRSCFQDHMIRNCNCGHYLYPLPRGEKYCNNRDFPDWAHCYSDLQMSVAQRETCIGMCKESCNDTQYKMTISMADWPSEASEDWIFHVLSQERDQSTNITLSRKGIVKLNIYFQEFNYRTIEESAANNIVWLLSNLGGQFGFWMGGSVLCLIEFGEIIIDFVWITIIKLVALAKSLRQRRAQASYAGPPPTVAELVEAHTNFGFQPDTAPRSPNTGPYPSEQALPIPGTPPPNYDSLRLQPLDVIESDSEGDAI
T2 sequence (P51170 1-649 partner): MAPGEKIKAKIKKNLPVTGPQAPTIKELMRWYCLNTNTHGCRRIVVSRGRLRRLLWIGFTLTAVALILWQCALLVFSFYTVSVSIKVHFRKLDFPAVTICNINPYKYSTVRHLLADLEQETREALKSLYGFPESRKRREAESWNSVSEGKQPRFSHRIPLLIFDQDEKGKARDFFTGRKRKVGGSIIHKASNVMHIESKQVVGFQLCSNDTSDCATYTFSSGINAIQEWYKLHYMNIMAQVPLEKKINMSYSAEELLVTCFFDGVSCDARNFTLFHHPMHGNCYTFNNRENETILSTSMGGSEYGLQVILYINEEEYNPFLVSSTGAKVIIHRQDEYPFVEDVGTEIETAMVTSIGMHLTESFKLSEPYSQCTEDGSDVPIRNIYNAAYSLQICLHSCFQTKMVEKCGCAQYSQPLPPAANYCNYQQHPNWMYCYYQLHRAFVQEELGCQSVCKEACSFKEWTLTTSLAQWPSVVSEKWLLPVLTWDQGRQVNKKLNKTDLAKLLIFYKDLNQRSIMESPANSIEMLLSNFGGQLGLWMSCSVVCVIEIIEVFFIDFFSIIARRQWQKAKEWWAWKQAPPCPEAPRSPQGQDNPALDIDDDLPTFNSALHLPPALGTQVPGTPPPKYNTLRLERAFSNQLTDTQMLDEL

C[C@@H]1NC(=O)CNC(=O)[C@H](CCC(=O)O)NC(=O)[C@@H]2CCCN2C(=O)[C@H]([C@@H](C)O)NC(=O)[C@H](CCC(=O)O)NC(=O)[C@H](CCCNC(=N)N)NC(=O)[C@H](CCC(N)=O)NC(=O)CNC(=O)[C@@H](N)CSSC[C@@H](C(=O)O)NC(=O)[C@H](Cc2ccc(O)cc2)NC(=O)[C@H](Cc2c[nH]c3ccccc23)NC(=O)[C@@H]2CCCN2C(=O)[C@H](CCCCN)NC(=O)[C@H](C)NC(=O)[C@H](CCC(=O)O)NC1=O [solnatide, L-cysteine, L-cysteinylglycyl-L-glutaminyl-L-arginyl-L-α-glutamyl-L-threonyl-L-prolyl-L-α-glutamylglycyl-L-alanyl-L-α-glutamyl-L-alanyl-L-lysyl-L-prolyl-L-tryptophyl-L-tyrosyl-, cyclic (1→17)-disulfide]
Membrane abundance, solnatide (γ-ENaC): only slight | Maximal induced current, solnatide (α-hENaC): 11.3 ± 6.2 pA | Maximal induced current, solnatide (αβγ-hENaC): 953.2 ± 11.5 pA
